We go through four compounds from US7691444B2, “Preservatives for wood-based products” (LANXESS Deutschland GmbH, priority 2002, dated 2010).

Read-outs that look alike come from different tables or passages of the source.

In one data set the test system is Tyromyces palustris. The experiment in a line: Standard rot trial (Japan Wood Preservers Association Standard Test procedure) on glueline-treated plywood. Type of data set: cell-based. The note with it: phenol formaldehyde glue.
Data set [1] can be described thus: Stability under the conditions of the glue-line treatment. Type of data set: physicochemical.
For data set [2] the following is noted: cited from earlier work.
A further data set deals with decay causing fungi. The data set can be described thus: Efficacy in the glue-line under alkaline conditions (PF type glues). The note with it: alkaline conditions such as PF type glues.
Where [3] appears, read: use rate 100 gram a.i./m^3 in the glueline of plywood from pinus spp.
The mark [4] stands for this setting: use rate 200 gram a.i./m^3 in the glueline of plywood from pinus spp.
Where [5] appears, read: use rate 400 gram a.i./m^3 in the glueline of plywood from pinus spp.
Where [6] appears, read: use rate 800 gram a.i./m^3 in the glueline of plywood from pinus spp.

Regarding `CC(C)(C)C(=O)C(Oc1ccc(Cl)cc1)n1cncn1` (racemic) [triadimefon, (±)1-(4-chlorophenoxy)-3,3-dimethyl-1-(1H-1,2,4-triazol-1-yl)butan-2-one], the “Efficacy against target organism (expressed as weight loss percent in a standard rot trial)” value in the data set on Tyromyces palustris (setting [3]) is reported as 3.7%; with Tyromyces palustris (setting [4]), 0.5%; in the data set with Tyromyces palustris (setting [5]), 0.9%; in the data set with Tyromyces palustris (setting [6]), 1.4%. In data set [1] (glue-line treatment), the “Stability under the conditions of the glue-line treatment” value was “stable”. For the same compound, the “Use rate range (agricultural uses)” value in data set [2] is recorded as 125–500 g/ha.

Take `CC(C)(C)C(O)C(Oc1ccc(Cl)cc1)n1cncn1` (racemic) [triadimenol, (±) 1-(4-chlorophenoxy)-3,3-dimethyl-1-(1H-1,2,4-triazol-1-yl)butan-2-ol]: the “Stability under the conditions of the glue-line treatment” value in data set [1] is recorded as “stable”. Further, the “Efficacy relative to triadimefon” value in the data set with decay causing fungi is given as “same efficacy as triadimefon”. In data set [2], the “Use rate range (agricultural uses)” value was 125–500 g/ha.

Take `CCCC1COC(Cn2cncn2)(c2ccc(Cl)cc2Cl)O1` (stereo not shown) [propiconazole]: the “Efficacy against target organism (expressed as weight loss percent in a standard rot trial)” value with Tyromyces palustris (setting [3]) came out at 20.5%; in the data set on Tyromyces palustris (setting [4]), 7.6%; with Tyromyces palustris (setting [5]), 21.4%; with Tyromyces palustris (setting [6]) it was 1.8%. For the same compound, the “Use rate range (agricultural uses)” value in data set [2] is on record as 100–150 g/ha.

Turning to `CC(C)(C)C(O)(CCc1ccc(Cl)cc1)Cn1cncn1` (stereo not shown) [tebuconazole], the “Efficacy against target organism (expressed as weight loss percent in a standard rot trial)” value in the data set with Tyromyces palustris (use rate 80 gram a.i./m^3 in the glueline of plywood from pinus spp) turned out to be 9.2%; in the data set on Tyromyces palustris (use rate 160 gram a.i./m^3 in the glueline of plywood from pinus spp), 20.9%; in the data set with Tyromyces palustris (use rate 320 gram a.i./m^3 in the glueline of plywood from pinus spp), 6.3%; in the data set with Tyromyces palustris (use rate 640 gram a.i./m^3 in the glueline of plywood from pinus spp) it was 18.5%. The “Use rate range (agricultural uses)” value in data set [2] is given as 100–250 g/ha.
